According to patent publication US7638553B2, “Hydroxamates, their manufacture and use as pharmaceutical agents” (Hoffmann-La Roche Inc., priority 2004, dated 2009):
pIC50: −log10 of the molar value.

Assays:
HT-29 cells = experiment: MTT assay on HT-29 human colon carcinoma cell line; format: cell-based; conditions: MTT assay after 5 days, read-out: IC90 HT29
Protocol: To show the activity of the compounds according to this invention, their effects on a human colon carcinoma cell line was evaluated using a standard MTT-assay. MTT (3-(4,5-dimethylthiazol-2-yl)-2,5-diphenyl tetrazolium bromide) is widely used for the quantitative determination of cytotoxic effects or in vitro chemosensitivity of tumor cells. The assay is based on the cleavage of the yellow tetrazolium salt (MTT) to purple formazan crystals by metabolic active cells. For details, see Rubinstein, L. V., et al., J. Natl. Cancer Inst. 82 (1990) 1113-1118.
We proceeded as follows: HT-29 cells (human colon carcinoma cell line, ATCC-No. HTB-38) were cultivated in RPMI 1640 medium with GlutaMAX™ I (Invitrogen, Cat-No. 61870-010), 2.5% fetal calf serum (FCS, Sigma Cat-No. F4135 (FBS)), 2 mM glutamine, 100 units/ml penicillin, 100 μg/ml streptomycin (=Pen/Strep from Invitrogen Cat. No. 15140). For the assay the cells were seeded in 384 well plates, 900 cells per well, in the same medium. At the next day, the compounds (dissolved 10 mM in DMSO) were added in various concentrations ranging from 30 μM to 1.5 nM. After 5 days, the MTT assay was done mainly according to the instructions of the manufacturer (Cell proliferation kit I, MTT, from Roche Molecular Biochemicals). In brief: MTT labeling reagent was added to a final concentration of 0.5 mg/ml, added and incubated for 4 hrs at 37° C., 5% CO2. During this incubation time purple formazan crystals are formed. After addition of the solubilization solution (20% Sodium Dodecyl Sulfate (SDS) in 0.02 M HCl) the plates were incubated overnight at 37° C., 5% CO2. After careful mixing, the plates were measured in Victor 2 (scanning multiwell spectrophotometer, Wallac) at 550 nm.
A decrease in number of living cells results in a decrease in the total metabolic activity in the sample. The decrease directly correlates to the amount of purple colour resulting from the solubilization of the purple formazan crystals. Determination of IC90 was done using XL-fit (XLfit software (ID Business Solution Ltd., Guilford, Surrey, UK)).

recombinant HDAC-1 = target: T1, recombinant HDAC-1 (Homo sapiens, UniProt Q13547); experiment: HDAC biochemical quench assay; conditions: recombinant HDAC-1 purified from HEK 293 cells; 1 μM peptide substrate, 90 min at room temperature
T1 construct: made in house; host or cells: HEK 293 cells (ATCC-No. CRL 1573)
Excerpt: The function of histone deacetylase (HDAC) is the deacetylation of lysines in e.g. histone H4. A peptide of 17 amino acids derived from histone H4 was labeled with tetramethylrhodamine (TAMRA, fluorophore, Invitrogen) at the C-terminus and QSY-7™ (quencher dye, Invitrogen) at the N-terminus and was used as a substrate (TAMRA—first 17 aa of histone H4—QSY7). Following deacetylation by HDAC, the enzyme Lys C is able to cleave the peptide after lysine. […] Inhibition of HDAC by compounds results in low signals because Lys C could not cleave the substrate and the quench effect persists.
For dose response curves, 10 concentrations were diluted 1:3 starting at 30 μM. 10 μl compound dilution were put into each well of a 384 well plate. 10 μl HDAC were added (recombinant HDAC-1 purified from HEK 293 cells (human embryonic kidney cell line transformed by Adenovirus 5 fragments, ATCC-No. CRL 1573); enzyme activity has to be assessed for each preparation). 10 μl peptide substrate was added (1 μM final concentration, derived from 1 mM stock solution diluted 1:1000 in test buffer). After 90 min incubation at room temperature, the reaction was stopped by addition of 20 μl test buffer including 3 μg/ml Lys C and 0.075% Sodium Dodecyl Sulfate (SDS). After overnight incubation the fluorescence signal of TAMRA was measured (Victor 2 from Wallac, absorption 544 nm, emission 590 nm). […]

T1 sequence (Q13547 whole entry, species assumed): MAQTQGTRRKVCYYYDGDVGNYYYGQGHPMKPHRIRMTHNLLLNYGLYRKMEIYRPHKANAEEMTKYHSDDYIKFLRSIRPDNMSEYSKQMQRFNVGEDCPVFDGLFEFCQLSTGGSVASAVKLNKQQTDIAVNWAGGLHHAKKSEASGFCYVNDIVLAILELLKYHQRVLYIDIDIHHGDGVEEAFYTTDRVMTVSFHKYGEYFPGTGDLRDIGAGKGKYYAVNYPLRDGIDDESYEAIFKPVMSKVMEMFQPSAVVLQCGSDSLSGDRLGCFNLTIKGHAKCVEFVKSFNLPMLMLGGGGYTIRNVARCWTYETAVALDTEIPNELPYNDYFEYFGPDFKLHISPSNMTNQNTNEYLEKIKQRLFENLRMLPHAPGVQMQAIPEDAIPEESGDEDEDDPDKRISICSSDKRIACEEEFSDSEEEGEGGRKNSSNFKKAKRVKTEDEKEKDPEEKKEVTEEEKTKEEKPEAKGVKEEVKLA

Row | SMILES | IC90 (HT-29 cells) | pIC50 (recombinant HDAC-1)
1 | CC(NC(=O)c1ccc(C(=O)NO)s1)c1ccc(SC(F)(F)F)cc1 (centres unmarked) [Example 1, Thiophene-2,5-dicarboxylic acid 2-hydroxyamide 5-{[1-(4-trifluoromethylsulfanyl-phenyl)-ethyl]-amide}] | 340 nM | 
2 | CC(NC(=O)c1ccc(C(=O)NO)s1)c1ccc(OC(F)(F)F)cc1 (centres unmarked) [Example 2-1, Thiophene-2,5-dicarboxylic acid 2-hydroxyamide 5-{[1-(4-trifluoromethoxy-phenyl)-ethyl]-amide}] |  | 8.51
3 | CC(NC(=O)c1ccc(C(=O)NO)s1)c1cccc(SC(F)(F)F)c1 (centres unmarked) [Example 2-2, Thiophene-2,5-dicarboxylic acid 2-hydroxyamide 5-{[1-(3-trifluoromethylsulfanyl-phenyl)-ethyl]-amide}] | 210 nM | 
4 | CSc1ccc(C(C)NC(=O)c2ccc(C(=O)NO)s2)cc1 (centres unmarked) [Example 2-3, Thiophene-2,5-dicarboxylic acid 2-hydroxyamide 5-{[1-(4-methylsulfanyl-phenyl)-ethyl]-amide}] |  | 8.65
5 | CC(NC(=O)c1ccc(C(=O)NO)s1)c1cccc(OC(F)(F)F)c1 (centres unmarked) [Example 3, Thiophene-2,5-dicarboxylic acid 2-hydroxyamide 5-{[1-(3-trifluoromethoxy-phenyl)-ethyl]-amide}] | 220 nM | 
